# Where a SMILES comes first, the peptide text is derived from it. The star is where a group is joined. X1 = CN(C)c1ccc2c(-c3ccc(C(=O)*)cc3C(=O)[O-])c3ccc(=[N+](C)C)cc-3oc2c1
# What was measured:
# [1] = test system: Bax; experiment: Western blotting of pro-apoptotic protein Bax; assay type: cell-based, human; conditions: Ca922, 25 μM, indicated time points, FIG. 6C
# Method: Protein expression of pro-apoptotic protein Bax were examined in Ca922 cells treated with 25 μM TMR-GBP for indicated time points. The relative protein level was presented below the blot as ratios which was normalized to Bax value of control cells (0 hour).
# Western Blotting Analysis
# Cells were harvested by trypsion or scratch and lysed in RIPA buffer (50 mM Tris-HCl, pH 7.4, 150 mM NaCl, 0.1% SDS, 0.5% Sodium deoxycholate, 1% NP-40) supplemented with 1× protease inhibitor cocktail. Sample was incubated on ice for 30 minutes and scraped every 10 minutes. Centrifuge at 13,000 rpm at 4° C. for 15 minutes, then collect supernatant for analysis. Protein concentration was determined by Bradford assay. First, 5× Bradford assay dye reagent was diluted into […], and mixture with RIPA (as standard) or samples. Concentration was obtained by spectrophotometer measurement. Equal volume of 2× laemmli buffer containing β-ME was added into protein lysate for goal concentration. Protein samples were boiled at 100° C. for 15 minutes and resolved by 10% SDS-PAGE gel or 4%-15% gradient gel. Then, transfer to PVDF membrane by 100V or 110V voltage for 1 hour. […] Washing the membrane three times with 1×PBST for every 5 minutes, protein band was detected by modified ECL (ddH2O, […] Tris pH8.0, 200 μM p-coumaric acid, 1.25 mM luminal, 0.001% H2O2) with ImageQuant LAS 4000 digital imaging system.
# [2] = test system: mitochondria of Ca922 cells; experiment: Immunofluorescence staining of TOM20 and cytochrome-c; assay type: cell-based, human; conditions: Ca922, different dose, 8 or 24 hours, FIG. 7
# Method: Ca922 cells were treated with different doses of TMR-GBP for 8 or 24 hours and then fixed with 4% formaldehyde. Representative images showing the staining of mitochondria marker TOM20 and cytochrome-c. Scale bar indicates 10 μm.
# Immunofluorescence Staining
# Cells grown on coverslips were washed with 1×PBS and fixed by PTEMF buffer (20 mM PIPES pH 6.8, 0.2% Triton X-100, 10 mM EGTA, 1 mM MgCl2, and 4% formaldehyde) or 4% paraformaldehyde for 10 minutes at room temperature. Then, fixation buffer was replaced with 1×PBST and the cells were washed with 1×PBST for another 10 minutes at room temperature. Coverslips were washed with 1×PBST twice gently and incubated with primary antibodies at room temperature for 1 hour. Next, washed with PBST for three times (2, 2, 5 minutes). Afterwards, coverslips were cultured in Alex Fluor-conjugated secondary antibodies and DAPI at room temperature for 30 minutes, washed three times (2, 2, 5 minutes), rinsed with ddH2O and mounted with mounting medium. Antibodies concentration used in this analysis is 1:1000 dilution. Images were acquired with specific fluorescence wavelength by Leica DMI6000 inverted microscope equipped with HCX PL FL 100λ/NA1.40 objective and EMCCD camera. All images were analyzed by MetaMorph software.
# [3] = test system: Huh7; experiment: WST-8 cell viability assay, Huh7; assay type: cell-based; conditions: Huh7 (liver cancer), different concentrations, 48 hours, FIG. 3
# Method: Human oral squamous cell carcinoma (OSCC) cell lines, Ca922, OSC20, OECM-1, OC3, CGHNC9, HSC3, plus A549, MDA-MB-231, MCF7, Huh7, HeLa-Kyoto, Detroit 562, H520, H2170, and 293T cells were used in this study. Ca922, CGHNC9, MDA-MB-231, MCF7, Huh7, HeLa-Kyoto, Detroit 562, and 293T cells were all cultured in high-glucose Dulbecco's Modified Eagle Medium (DMEM). OSC20 and HSC3 cells were cultured in Dulbecco's Modified of Eagle's Medium/Ham's F-12 50/50 Mix (1:1). OECM-1, A549, H520, and H2170 cells were grown in RPMI-1640 medium. All culture media were supplemented with 10% fetal bovine serum (FBS) and 1% penicillin-streptomycin. OC3 cells were cultured in 1:1 DMEM/KSFM (keratinocyte serum-free medium) with supplied supplement of Bovine pituitary extract (BPE) and epidermal growth factor (EGF) followed by instruction. All the cells in this study were maintained at 37° C. in humidified atmosphere containing 5% CO2.
# WST-8 [2-(2-methoxy-4-nitrophenyl)-3-(4-nitrophenyl)-5-(2,4-disulfophenyl)-2H-tetrazolium, monosodium salt] cell viability assay
# Cells were seeded into 96 well plate and incubated at 37° C. overnight. […] The amount of formazan produced is proportional to the number of live cells and is expressed as cellular viability. […] Cell viability was measured at the absorbance of 450/655 nm wavelength by ELISA reader.
# [4] = test system: Ca922 cells; experiment: Time-lapse live cell imaging, Ca922; assay type: cell-based
# Method: Ca922 cells were grown on 35 mm culture dishes overnight then treated with 1% DMSO, 12.5 μM TMR, GBP, TMR-GBP respectively and monitored by time-lapse live cell microscope. Cells were exposed to indicate wavelength once every 4 hours for 100 ms and continuously for 20 hours. At least 300 cells in five different fields were counted for each experiment using microcopy that captured images under 10× magnification. Mortality rate was evaluated by counting the percentage of dead cells in the whole population. Standard deviations of three independent experiments were indicated as bars.
# Time-Lapse Live Cell Imaging
# In order to monitor cell morphology and the stability of TMR-GBP, cells were incubated in 35 mm dish or 4 well dish at 37° C. overnight. Replaced the culture medium with CO2-independent medium with supplement of 10% fetal bovine serum (FBS) and 1% penicillin-streptomycin, cells were treated with reagent (TMR, GBP, TMR-GBP) for the time according to the experiment and subjected to time-lapse live cell imaging. Cells were maintained on the microscope stage incubator at 37° C. Multiple-positional time-lapse imaging was performed using an automated Leica DMI6000 inverted microscope equipped with an HCX PL FL 20λ/NA0.4 objective and Andor Luca R EMCCD camera. Images of cells were taken at different interval time and analyzed by MetaMorph software.
smiles,measurement,setting,value
CN(C)c1ccc2c(-c3ccc(C(=O)N[C@@H](CC(N)=O)C(=O)N[C@@H](Cc4ccc(O)cc4)C(=O)N[C@@H](CCCNC(=N)N)C(=O)N[C@@H](Cc4c[nH]c5ccccc45)C(=O)N[C@@H](CCCNC(=N)N)C(=O)N[C@@H](CS)C(=O)N[C@@H](CCCCN)C(=O)N[C@@H](CC(N)=O)C(=O)N[C@@H](CCC(N)=O)C(=O)N[C@@H](CC(N)=O)C(=O)O)cc3C(=O)[O-])c3ccc(=[N+](C)C)cc-3oc2c1 [TMR-GBP] (X1-NYRWRCKNQN-OH; N-terminus and C-terminus assumed),protein expression of Bax,[1],increased
same,cytochrome-c release,[2],Cytochrome-c release upon TMR-GBP treatment was also detected
same,morphology of mitochondria (TOM20),[2],became fragmented when the concentration of TMR-GBP was increased or the treatment time was extended
same,cell viability,[3],not markedly affected
same,cytotoxicity under light stress (mortality),"[4]; Ca922, 12.5 μM, exposed to 532 nm, 488 nm, 405 nm and brightfield, after 20 hours, FIG. 2",more sensitive to 532 nm light stress and displayed cytotoxic effects
same,cell death by time-lapse microscopy,"[4]; Ca922, unbound TMR-GBP removed, imaged at 15 minutes interval for 16 hours, FIG. 4",most cells die in 8 hours
